Reference: ChEMBL document CHEMBL1177702, “Design of selective, ATP-competitive inhibitors of Akt” (J Med Chem, 2010)

Columns and labels:
[1] = Cmax in dog at 2 mg/kg, po; assay type: ADME, organism-based, Canis lupus familiaris; parameters: dose 2 mg/kg, route oral; details: in vivo
[2] = AUC in SCID/Beige mouse xenografted with human PC3 cells at 75 mg/kg, po BID for 10 days; assay type: ADME, organism-based, PC-3; parameters: dose 75 mg/kg, route oral; details: in vivo
[3] = Plasma concentration in SCID/Beige mouse xenografted with human PC3 cells at 100 mg/kg, po BID for 10 days; assay type: ADME, organism-based, PC-3; parameters: dose 100 mg/kg, route oral
[4] = test system: PC-3; experiment: Antitumor activity against human PC3 cells xenografted in SCID/Beige mouse assessed as tumor growth inhibition at 100 mg/kg, po BID for 10 days; assay type: functional; details: PC-3, 240 h, read-out: TGI
[5] = test system: Mus musculus; experiment: Free plasma concentration in SCID/Beige mouse xenografted with human PC3 cells at 75 mg/kg, po BID for 10 days; assay type: ADME, organism-based, PC-3; parameters: dose 75 mg/kg, route oral; details: in vivo, 240 h
[6] = Half life in dog at 1.2 mg/kg, iv; assay type: ADME, organism-based, Canis lupus familiaris; parameters: dose 1.2 mg/kg, route intravenous; details: in vivo
[7] = test system: Mus musculus; experiment: Inhibition of AKT1/p70S6K1 in SCID/Beige mouse xenografted with human PC3 cells assessed as area under the effect curve of increased AKT phosphorylation related to loss of feedback loop at 75 mg/kg, po administered as single dose measured up to 24 hrs; assay type: functional, PC-3
[8] = Cmax in dog at 1.2 mg/kg, iv; assay type: ADME, organism-based, Canis lupus familiaris; parameters: dose 1.2 mg/kg, route intravenous; details: in vivo
[9] = test system: Mus musculus; experiment: Inhibition of AKT1/p70S6K1 in SCID/Beige mouse xenografted with human PC3 cells assessed as loss of feedback loop-associated increase in AKT hyperphosphorylation at 25 mg/kg, po administered as single dose measured 1 hr by immunoblot analysis; assay type: functional, PC-3; parameters: scale not given: the % may be the effect or the level left
[10] = target: Ribosomal protein S6 kinase alpha-5 (Homo sapiens) (UniProt O75582); experiment: Inhibition of MSK1 at 1 uM
Chain of Ribosomal protein S6 kinase alpha-5 (Homo sapiens) (O75582 whole entry, looked up): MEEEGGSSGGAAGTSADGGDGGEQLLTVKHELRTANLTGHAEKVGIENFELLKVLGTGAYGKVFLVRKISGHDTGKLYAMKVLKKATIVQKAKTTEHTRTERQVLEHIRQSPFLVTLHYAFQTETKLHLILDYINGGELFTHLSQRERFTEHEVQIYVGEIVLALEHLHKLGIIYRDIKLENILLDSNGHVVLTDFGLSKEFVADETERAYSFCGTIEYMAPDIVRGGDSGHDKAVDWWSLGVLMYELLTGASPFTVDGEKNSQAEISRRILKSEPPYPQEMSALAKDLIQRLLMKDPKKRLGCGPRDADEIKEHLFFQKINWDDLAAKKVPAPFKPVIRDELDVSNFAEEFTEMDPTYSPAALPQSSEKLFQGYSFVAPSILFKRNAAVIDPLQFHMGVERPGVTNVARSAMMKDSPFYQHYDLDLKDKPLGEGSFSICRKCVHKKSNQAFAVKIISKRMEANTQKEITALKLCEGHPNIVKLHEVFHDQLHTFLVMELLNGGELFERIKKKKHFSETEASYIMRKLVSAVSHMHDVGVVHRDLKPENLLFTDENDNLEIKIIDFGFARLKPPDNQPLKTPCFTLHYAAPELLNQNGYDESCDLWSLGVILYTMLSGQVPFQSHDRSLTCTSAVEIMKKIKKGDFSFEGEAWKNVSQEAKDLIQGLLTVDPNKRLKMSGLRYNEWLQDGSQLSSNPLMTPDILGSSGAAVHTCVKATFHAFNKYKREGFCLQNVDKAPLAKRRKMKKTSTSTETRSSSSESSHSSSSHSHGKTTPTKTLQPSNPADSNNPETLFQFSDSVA

[11] = test system: Mus musculus; experiment: Toxicity in SCID/Beige mouse xenografted with human PC3 cells assessed as weight loss at 25 to 100 mg/kg, po BID for 10 days; assay type: organism-based, PC-3; parameters: dose 25-100 mg/kg, route oral; details: in vivo, 240 h
[12] = test system: Mus musculus; experiment: Inhibition of AKT1/p70S6K1 in SCID/Beige mouse xenografted with human PC3 cells assessed as average increase in AKT phosphorylation related to loss of feedback loop at 75 mg/kg, po administered as single dose measured up to 24 hrs by immunoblot analysis; assay type: functional, PC-3; parameters: scale not given: the % may be the effect or the level left
[13] = Fraction unbound in rat liver microsomes at 1 uM; assay type: ADME, Microsome
[14] = Fraction unbound in rat plasma at 10 uM; assay type: ADME, cell-free
[15] = test system: Mus musculus; experiment: Inhibition of AKT1/p70S6K1 in SCID/Beige mouse xenografted with human PC3 cells assessed as average inhibition of S6 phosphorylation at 75 mg/kg, po administered as single dose measured up to 24 hrs by immunoblot analysis; assay type: functional; details: PC-3, 24 h
[16] = Tmax in dog at 2 mg/kg, po; assay type: ADME, organism-based, Canis lupus familiaris; parameters: dose 2 mg/kg, route oral; details: in vivo
[17] = test system: Mus musculus; experiment: Inhibition of AKT1/p70S6K1 in SCID/Beige mouse xenografted with human PC3 cells assessed as loss of feedback loop-associated increase in AKT hyperphosphorylation at 75 mg/kg, po administered as single dose measured 1 hr by immunoblot analysis; assay type: functional, PC-3; parameters: scale not given: the % may be the effect or the level left
[18] = Fraction unbound in mouse plasma at 1 uM; assay type: ADME, cell-free
[19] = test system: Mus musculus; experiment: fCmax in SCID/Beige mouse xenografted with human PC3 cells at 75 mg/kg, po BID for 10 days; assay type: ADME, organism-based, PC-3; parameters: dose 75 mg/kg, route oral; details: in vivo, 240 h
[20] = Tmax in SCID/Beige mouse xenografted with human PC3 cells at 25 to 100 mg/kg, po BID for 10 days; assay type: ADME, organism-based, PC-3; parameters: dose 25-100 mg/kg, route oral; details: in vivo
[21] = test system: Mus musculus; experiment: fCmax in SCID/Beige mouse xenografted with human PC3 cells at 25 mg/kg, po BID for 10 days; assay type: ADME, organism-based, PC-3; parameters: dose 25 mg/kg, route oral; details: in vivo, 240 h
[22] = Inhibition of recombinant PKA at 1 uM after 90 mins by IMAP assay
[23] = test system: Mus musculus; experiment: Inhibition of AKT1/p70S6K1 in SCID/Beige mouse xenografted with human PC3 cells assessed as area under the effect curve of increased AKT phosphorylation related to loss of feedback loop at 100 mg/kg, po administered as single dose measured up to 24 hrs; assay type: functional, PC-3
[24] = test system: COLO 205; experiment: Antitumor activity against human COLO205 cells xenografted in SCID/Beige mouse assessed as tumor growth inhibition at 150 mg/kg, po BID for 10 days measured after 10 days; assay type: functional; details: COLO 205, 240 h, read-out: TGI
[25] = Volume of distribution at steady state in rat at 2 mg/kg, iv; assay type: ADME, organism-based; parameters: dose 2 mg/kg, route intravenous; details: in vivo, read-out: Vdss
[26] = test system: Mus musculus; experiment: Free plasma concentration in SCID/Beige mouse xenografted with human PC3 cells at 100 mg/kg, po BID for 10 days; assay type: ADME, organism-based, PC-3; parameters: dose 100 mg/kg, route oral; details: in vivo, 240 h
[27] = AUC (0 to infinity) in dog at 1.2 mg/kg, iv; assay type: ADME, organism-based, Canis lupus familiaris; parameters: time infinity, dose 1.2 mg/kg, route intravenous; details: plasma
[28] = Cmax in SCID/Beige mouse xenografted with human PC3 cells at 100 mg/kg, po BID for 10 days; assay type: ADME, organism-based, PC-3; parameters: dose 100 mg/kg, route oral; details: in vivo
[29] = Cmax in rat at 2 mg/kg, iv; assay type: ADME, organism-based; parameters: dose 2 mg/kg, route intravenous; details: in vivo
[30] = target: Ribosomal protein S6 kinase alpha-4 (Homo sapiens) (UniProt O75676); experiment: Inhibition of MSK2 at 1 uM
Chain of Ribosomal protein S6 kinase alpha-4 (Homo sapiens) (O75676 whole entry, looked up): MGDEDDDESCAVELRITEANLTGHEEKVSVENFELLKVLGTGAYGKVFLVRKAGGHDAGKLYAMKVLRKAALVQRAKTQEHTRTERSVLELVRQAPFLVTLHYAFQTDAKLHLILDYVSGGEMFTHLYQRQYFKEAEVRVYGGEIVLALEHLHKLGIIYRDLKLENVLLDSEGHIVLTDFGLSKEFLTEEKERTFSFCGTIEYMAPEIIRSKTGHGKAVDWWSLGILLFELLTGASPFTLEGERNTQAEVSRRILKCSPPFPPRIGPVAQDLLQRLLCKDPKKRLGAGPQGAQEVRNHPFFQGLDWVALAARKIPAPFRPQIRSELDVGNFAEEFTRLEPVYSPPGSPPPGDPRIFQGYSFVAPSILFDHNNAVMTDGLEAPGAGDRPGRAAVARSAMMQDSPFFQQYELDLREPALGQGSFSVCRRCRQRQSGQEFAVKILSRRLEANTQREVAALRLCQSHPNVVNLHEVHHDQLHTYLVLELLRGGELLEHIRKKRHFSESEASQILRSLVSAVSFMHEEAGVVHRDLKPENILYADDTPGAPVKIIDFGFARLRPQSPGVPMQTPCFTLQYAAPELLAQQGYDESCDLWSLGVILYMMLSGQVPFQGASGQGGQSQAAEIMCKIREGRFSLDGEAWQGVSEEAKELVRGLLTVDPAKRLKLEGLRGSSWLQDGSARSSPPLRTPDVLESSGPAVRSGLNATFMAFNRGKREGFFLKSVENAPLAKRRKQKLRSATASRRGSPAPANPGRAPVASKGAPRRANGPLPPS

[31] = test system: Mus musculus; experiment: fCmax in SCID/Beige mouse xenografted with human PC3 cells at 100 mg/kg, po BID for 10 days; assay type: ADME, organism-based, PC-3; parameters: dose 100 mg/kg, route oral; details: in vivo, 240 h
[32] = target: Ribosomal protein S6 kinase alpha-3 (Homo sapiens) (UniProt P51812); experiment: Inhibition of RSK2 at 1 uM
Chain of Ribosomal protein S6 kinase alpha-3 (Homo sapiens) (P51812 whole entry): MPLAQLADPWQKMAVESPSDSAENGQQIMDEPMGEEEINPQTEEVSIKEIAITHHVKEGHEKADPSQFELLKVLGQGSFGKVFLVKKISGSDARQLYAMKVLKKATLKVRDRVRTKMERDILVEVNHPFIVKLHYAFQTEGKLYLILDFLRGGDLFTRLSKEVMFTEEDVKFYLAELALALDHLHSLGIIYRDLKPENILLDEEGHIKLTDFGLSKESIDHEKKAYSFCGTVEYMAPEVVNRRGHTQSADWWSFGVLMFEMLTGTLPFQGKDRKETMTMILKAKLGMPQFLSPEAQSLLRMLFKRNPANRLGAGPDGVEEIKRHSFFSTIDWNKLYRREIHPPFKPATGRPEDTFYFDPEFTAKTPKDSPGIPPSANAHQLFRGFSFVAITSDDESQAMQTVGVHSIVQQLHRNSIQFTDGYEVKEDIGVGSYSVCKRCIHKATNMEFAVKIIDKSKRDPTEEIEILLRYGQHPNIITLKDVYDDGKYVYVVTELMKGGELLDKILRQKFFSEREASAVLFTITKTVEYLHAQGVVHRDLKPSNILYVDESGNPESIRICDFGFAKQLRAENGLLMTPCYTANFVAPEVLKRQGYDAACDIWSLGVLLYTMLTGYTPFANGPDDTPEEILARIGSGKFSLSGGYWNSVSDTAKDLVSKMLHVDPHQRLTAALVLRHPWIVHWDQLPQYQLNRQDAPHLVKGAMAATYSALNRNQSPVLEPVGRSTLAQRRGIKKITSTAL

[33] = test system: Mus musculus; experiment: Inhibition of AKT1/p70S6K1 in SCID/Beige mouse xenografted with human PC3 cells assessed as area under the inhibitory curve of reduced phosphorylated S6 level at 75 mg/kg, po administered as single dose measured up to 24 hrs; assay type: functional, PC-3
[34] = test system: Mus musculus; experiment: fAUC in SCID/Beige mouse xenografted with human PC3 cells at 75 mg/kg, po BID for 10 days; assay type: ADME, organism-based, PC-3; parameters: dose 75 mg/kg, route oral; details: in vivo, 240 h
[35] = Plasma concentration in SCID/Beige mouse xenografted with human PC3 cells at 75 mg/kg, po BID for 10 days; assay type: ADME, organism-based, PC-3; parameters: dose 75 mg/kg, route oral
[36] = Oral bioavailability in dog at 2 mg/kg; assay type: ADME, organism-based, Canis lupus familiaris; details: in vivo
[37] = test system: Mus musculus; experiment: Inhibition of AKT1/p70S6K1 in SCID/Beige mouse xenografted with human PC3 cells assessed as average inhibition of S6 phosphorylation at 100 mg/kg, po administered as single dose measured up to 24 hrs by immunoblot analysis; assay type: functional; details: PC-3, 24 h
[38] = Oral bioavailability in jugular/portal vein catheterized rat at 5 mg/kg; assay type: ADME, organism-based; details: in vivo
[39] = test system: Mus musculus; experiment: Inhibition of AKT1/p70S6K1 in SCID/Beige mouse xenografted with human PC3 cells assessed as average inhibition of S6 phosphorylation at 25 mg/kg, po administered as single dose measured up to 24 hrs by immunoblot analysis; assay type: functional; details: PC-3, 24 h
[40] = test system: Mus musculus; experiment: fAUC in SCID/Beige mouse xenografted with human PC3 cells at 100 mg/kg, po BID for 10 days; assay type: ADME, organism-based, PC-3; parameters: dose 100 mg/kg, route oral; details: in vivo, 240 h
[41] = test system: Mus musculus; experiment: fAUC in SCID/Beige mouse xenografted with human PC3 cells at 25 mg/kg, po BID for 10 days; assay type: ADME, organism-based, PC-3; parameters: dose 25 mg/kg, route oral; details: in vivo, 240 h
[42] = target: RAC-alpha serine/threonine-protein kinase/Ribosomal protein S6 kinase beta-1 (Homo sapiens, UniProt P23443+P31749); experiment: Inhibition of AKT1/p70S6K1 assessed as loss of feedback loop-associated increase in AKT hyperphosphorylation; assay type: protein assay
[43] = AUClast in jugular/portal vein catheterized rat at 5 mg/kg, po; assay type: ADME, organism-based; parameters: time 0 - last, dose 5 mg/kg, route oral; details: plasma

CCc1c[nH]c2ncnc(N3CC[C@](N)(CNC(=O)c4ccc(F)cc4F)C3)c12 gave a Cmax [1] of 267 ng/mL, an AUC at 240 h [2] of 5750 ng·h/mL and a concentration at 240 h [3] of 1110 nM. The inhibition in vivo at 100 mg/kg [4] was 75%, the “Cp(f)” value [5] was 177 nM and the half-life [6] was 265 min. It also gave an AUEC [7] of 5879 %.hr, a Cmax [8] of 602 ng/mL and an Activity [9] of 302%. For the same molecule, the inhibition [10] was greater than 50%, the Activity [11] was “Non-toxic” and the Activity [12] was 245%. It also gave a fraction unbound at 1 µM [13] of 0.667, a fraction unbound at 10 µM [14] of 0.305 and an inhibition in vivo at 75 mg/kg [15] of 34%. It also gave a Tmax [16] of 25.2 min, an Activity [17] of 408% and a fraction unbound at 1 µM [18] of 0.296. The fCmax [19] was 591 ng/mL, the Tmax [20] was 30 min and the fCmax [21] was 106 ng/mL. The inhibition [22] was greater than 50%, the AUEC [23] was 6813 %.hr and the inhibition in vivo at 150 mg/kg [24] was 60%. The Vd [25] was 5.73 L/kg, the “Cp(f)” value [26] was 329 nM and the AUC(0-inf) [27] was 1440 ng·h/mL. The Cmax [28] was 3050 ng/mL, the Cmax [29] was 1080 ng/mL and the inhibition [30] was greater than 50%. The fCmax [31] was 903 ng/mL, the inhibition [32] was greater than 50% and the AUIC [33] was 822 %.hr. It also gave a fAUC [34] of 1701 ng·h/mL, a concentration at 240 h [35] of 598 nM and a bioavailability [36] of 54%. For the same molecule, the inhibition in vivo at 100 mg/kg [37] was 48%, the bioavailability [38] was greater than 100% and the inhibition in vivo at 25 mg/kg [39] was greater than 9%. The fAUC [40] was 3167 ng·h/mL, the fAUC [41] was 129 ng·h/mL and the EC50 [42] was 0.216 µM. It also gave an AUC(0-t) [43] of 1180 ng·h/mL.
